Experiments:
[1] = tested on: MDA-MB-231; assay: Antiproliferative activity against human MDA-MB-231 cells assessed as inhibition of cell viability at 10 uM after 48 hrs by MTT assay relative to control; format: functional
[2] = tested on: L3.6pl; assay: Antiproliferative activity against human L3.6 cells assessed as inhibition of cell viability at 10 uM after 48 hrs by MTT assay relative to control; format: functional
[3] = tested on: SW480; assay: Antiproliferative activity against human SW480 cells assessed as inhibition of cell viability at 10 uM after 48 hrs by MTT assay relative to control; format: functional
[4] = tested on: HCT-116; assay: Antiproliferative activity against human HCT116 cells assessed as inhibition of cell viability at 10 uM after 48 hrs by MTT assay relative to control; format: functional
[5] = tested on: SW480; assay: Antiproliferative activity against human SW480 cells assessed as inhibition of cell viability after 48 hrs by MTT assay; format: functional, cell-based; conditions: SW480, 48 h
[6] = tested on: HCT-116; assay: Antiproliferative activity against human HCT-116 cells assessed as inhibition of cell viability after 48 hrs by MTT assay; format: functional, cell-based; conditions: HCT-116, 48 h
[7] = Lipophilicity, log P of the compound; format: physicochemical; conditions: octanol/water
[8] = tested on: MDA-MB-231; assay: Antiproliferative activity against human MDA-MB-231 cells assessed as inhibition of cell viability after 48 hrs by MTT assay; format: functional, cell-based; conditions: MDA-MB-231, 48 h

IC50 [5] | IC50 [6] | logP [7] | IC50 [8] | SMILES | inhibition at 10 µM [1] | inhibition at 10 µM [2] | inhibition at 10 µM [3] | inhibition at 10 µM [4]
 |  |  |  | COc1cc(CNC(=O)c2ccc(Cl)c(S(N)(=O)=O)c2)cc(OC)c1OC | 44.4% | 38.2% | 27.4% | 34.3%
 |  |  |  | COc1cc(NC(=O)c2ccc(Cl)c(S(=O)(=O)NC(=O)c3ccccc3)c2)cc(OC)c1OC | 2.05% | -27.8% | 29.5% | 32.3%
 |  |  |  | NS(=O)(=O)c1cc(C(=O)Nc2ccc(F)c(Cl)c2)ccc1Cl | 41.5% | 30.2% | 49.1% | 47.5%
 |  |  |  | COc1ccccc1C(=O)NS(=O)(=O)c1cc(C(=O)Nc2cc(OC)c(OC)c(OC)c2)ccc1Cl | 13.1% | -18.3% | 33.9% | 16.2%
> 20 µM | 9.62 µM | 2.97 | > 20 µM | NS(=O)(=O)c1cc(C(=O)NCc2cccc(Cl)c2Cl)ccc1Cl | 51.5% | 11.6% | 19.6% | 70.4%
> 20 µM | 18.6 µM | 1.34 | > 20 µM | COc1cccc(CNC(=O)c2ccc(Cl)c(S(N)(=O)=O)c2)c1 | 36.3% | 19.4% | 37.7% | 64.2%
> 20 µM | 10.7 µM | 0.79 | 12.7 µM | COc1cc(NC(=O)c2cccc(S(N)(=O)=O)c2)cc(OC)c1OC | 59.4% | 19.5% | 26.9% | 57.7%
 |  |  |  | NS(=O)(=O)c1cccc(C(=O)Nc2cccc(C(F)(F)F)c2)c1 | 27.2% | 9.27% | 34.4% | 39.7%
> 20 µM | 10.8 µM | 2.76 | 7.32 µM | NS(=O)(=O)c1cc(C(=O)Nc2ccc(C(F)(F)F)cc2)ccc1Cl | 27.3% | 29.6% | 47.4% | 55.4%
 | 9.82 µM | 1.54 | 0.7 µM | CC(C)(C)OC(=O)c1ccc(NC(=O)c2cccc(S(N)(=O)=O)c2)cc1 | 91.1% | 31.2% | 55.4% | 79.3%
 |  |  |  | NS(=O)(=O)c1cccc(C(=O)Nc2ccc([N+](=O)[O-])cc2Cl)c1 | 43.2% | 21.3% | 44.1% | 15.1%
 |  |  |  | COc1cc(NC(=O)c2ccc(Cl)c(S(=O)(=O)NC(=O)c3ccc(Cl)nc3)c2)cc(OC)c1OC | 5.01% | -15.7% | 8.11% | -9.17%
 |  |  |  | NS(=O)(=O)c1cc(C(=O)Nc2ccccc2C(F)(F)F)ccc1Cl | 44.9% | 21.2% | 30.7% | 45.4%
 |  |  |  | COc1ccccc1NC(=O)c1cccc(S(N)(=O)=O)c1 | 27.1% | 9.7% | 18.2% | 40.3%
 |  |  |  | COc1ccc(NC(=O)c2ccc(Cl)c(S(N)(=O)=O)c2)cc1 | 30.9% | 22.8% | 31.9% | 20.2%
 |  |  |  | COc1cc(NC(=O)c2ccc(Cl)c(S(N)(=O)=O)c2)c(C(=O)O)cc1OC | 66.7% | 11.8% | 30.2% | 47.2%
 |  |  |  | COc1cc(NC(=O)c2cccc(S(N)(=O)=O)c2)cc(OC)c1 | 39.6% | 22.2% | 40.4% | 47.1%
 |  |  |  | CN1CCN(c2ccc(NC(=O)c3ccc(Cl)c(S(N)(=O)=O)c3)cc2)CC1 | 37.3% | 14.6% | 38.3% | 40.5%
 |  |  |  | CCC(=O)NS(=O)(=O)c1cc(C(=O)Nc2cc(OC)c(OC)c(OC)c2)ccc1Cl | 19.6% | 1.47% | 21.3% | 27.2%
 |  |  |  | NS(=O)(=O)c1cccc(C(=O)Nc2ccc(C(F)(F)F)cc2)c1 | 26.4% | 18.1% | 38.1% | 19.1%
 |  |  |  | COc1cc(NC(=O)c2ccc(Cl)c(S(=O)(=O)NC(=O)c3c(OC)cccc3OC)c2)cc(OC)c1OC | 18.1% | 4.06% | 30.6% | 10.2%
 |  |  |  | NC(N)=NS(=O)(=O)c1ccc(NC(=O)c2ccc(Cl)c(S(N)(=O)=O)c2)cc1 | 46.4% | 11.1% | 27.3% | 41.3%
 |  |  |  | COc1ccc(OC)c(NC(=O)c2ccc(Cl)c(S(N)(=O)=O)c2)c1 | 26.7% | 24.2% | 23.2% | 28.2%

IC50 [5] | IC50 [6] | logP [7] | IC50 [8] | SMILES | inhibition at 10 µM [1] | inhibition at 10 µM [2] | inhibition at 10 µM [3] | inhibition at 10 µM [4]
 |  |  |  | COc1ccccc1NC(=O)c1ccc(Cl)c(S(N)(=O)=O)c1 | 19.8% | 22.9% | 49.3% | 37.3%
 |  |  |  | COc1ccc(CNC(=O)c2ccc(Cl)c(S(N)(=O)=O)c2)cc1 | 54% | 29% | 16.2% | 43.1%
 |  |  |  | NS(=O)(=O)c1cccc(C(=O)Nc2cccnc2)c1 | 42.9% | 32.7% | 28.3% | 8.11%
 |  |  |  | COc1cc(NC(=O)c2ccc(Cl)c(S(=O)(=O)NC(=O)C=C(C)C)c2)cc(OC)c1OC | 22.3% | -7.12% | 22.6% | 20.1%
 |  |  |  | NS(=O)(=O)c1cccc(C(=O)Nc2ccccc2C(F)(F)F)c1 | 42.8% | 21.9% | 24.8% | 40.3%
 |  |  |  | NS(=O)(=O)c1ccc(O)c(C(=O)Nc2ccc([N+](=O)[O-])cc2Cl)c1 | 48.2% | 44.7% | -8.3% | 64%
 |  |  |  | COc1cc(NC(=O)c2ccc(Cl)c(S(N)(=O)=O)c2)cc(OC)c1 | 31.8% | 26.3% | 27.2% | 42.5%
 |  |  |  | COc1cc(NC(=O)c2ccc(Cl)c(S(=O)(=O)NC(C)=O)c2)cc(OC)c1OC | 19.4% | -15.2% | 19.5% | 27.2%
 |  |  |  | COc1ccc(C(=O)NS(=O)(=O)c2cc(C(=O)Nc3cc(OC)c(OC)c(OC)c3)ccc2Cl)cc1 | 13.1% | 18.3% | 20.1% | 4.8%
 |  |  |  | C/C=C/C(=O)NS(=O)(=O)c1cc(C(=O)Nc2cc(OC)c(OC)c(OC)c2)ccc1Cl | 18.4% | 11.7% | 24.6% | 29.3%
 |  |  |  | NS(=O)(=O)c1cc(C(=O)Nc2ccc(N3CCOCC3)cc2)ccc1Cl | 43.3% | 12.2% | 21.9% | 39.3%
 |  |  |  | C=C(C)C(=O)NS(=O)(=O)c1cc(C(=O)Nc2cc(OC)c(OC)c(OC)c2)ccc1Cl | 4.84% | -11.3% | 22.3% | 30%
 |  |  |  | COc1cc(NC(=O)c2ccc(Cl)c(S(=O)(=O)NC(=O)c3cccc([N+](=O)[O-])c3)c2)cc(OC)c1OC | 14.3% | -6.13% | 12.1% | 3.74%
 |  |  |  | COc1cccc(C(=O)NS(=O)(=O)c2cc(C(=O)Nc3cc(OC)c(OC)c(OC)c3)ccc2Cl)c1 | 23.5% | -0.51% | 22% | 21.3%
 |  |  |  | NS(=O)(=O)c1cc(C(=O)Nc2cccc(C(F)(F)F)c2)ccc1Cl | 29% | 22.3% | 42.9% | 41.4%
 |  |  |  | COc1cc(NC(=O)c2ccc(Cl)c(S(N)(=O)=O)c2)cc(OC)c1OC | 93.3% | 42.1% | 82.2% | 87.9%
 |  |  |  | COc1ccc(NC(=O)c2cccc(S(N)(=O)=O)c2)cc1 | 32.3% | 23.9% | 38.4% | 42.7%
 |  |  |  | COc1ccc(OC)c(NC(=O)c2cccc(S(N)(=O)=O)c2)c1 | 37% | 20.5% | 31.9% | 46.4%
 |  |  |  | NS(=O)(=O)c1cc(C(=O)Nc2c(F)c(F)c(F)c(F)c2F)ccc1Cl | 33.1% | 12.6% | 27.1% | 34%
 |  |  |  | COc1cc(OC)cc(C(=O)NS(=O)(=O)c2cc(C(=O)Nc3cc(OC)c(OC)c(OC)c3)ccc2Cl)c1 | 4.11% | -13.1% | 16.1% | -2.37%
 |  |  |  | COc1cccc(NC(=O)c2ccc(Cl)c(S(N)(=O)=O)c2)c1 | 42.4% | 22.3% | 29.3% | 43%
 |  |  |  | C=CC(=O)NS(=O)(=O)c1cc(C(=O)Nc2cc(OC)c(OC)c(OC)c2)ccc1Cl | 2.82% | -12.9% | 28.9% | 24.2%
 |  |  |  | NS(=O)(=O)c1cc(C(=O)Nc2ccc(Cl)c(F)c2)ccc1Cl | 43.7% | 26.4% | 48.1% | 44.1%
